Results on one compound are retold here after patent publication US20190046558A1, “COMPOSITION AND METHODS OF INHIBITING AMYLASE-MEDIATED HYDROLYSIS OF ALPHA (1 to 4)-LINKED GLUCOSE POLYMERS” (priority 2015, published 2019).

The test deals with T1, porcine pancreatic α-amylase (Sus scrofa, UniProt P00690).
T1 construct: purchased Megazyme, Inc
T1 sequence (P00690 16-511): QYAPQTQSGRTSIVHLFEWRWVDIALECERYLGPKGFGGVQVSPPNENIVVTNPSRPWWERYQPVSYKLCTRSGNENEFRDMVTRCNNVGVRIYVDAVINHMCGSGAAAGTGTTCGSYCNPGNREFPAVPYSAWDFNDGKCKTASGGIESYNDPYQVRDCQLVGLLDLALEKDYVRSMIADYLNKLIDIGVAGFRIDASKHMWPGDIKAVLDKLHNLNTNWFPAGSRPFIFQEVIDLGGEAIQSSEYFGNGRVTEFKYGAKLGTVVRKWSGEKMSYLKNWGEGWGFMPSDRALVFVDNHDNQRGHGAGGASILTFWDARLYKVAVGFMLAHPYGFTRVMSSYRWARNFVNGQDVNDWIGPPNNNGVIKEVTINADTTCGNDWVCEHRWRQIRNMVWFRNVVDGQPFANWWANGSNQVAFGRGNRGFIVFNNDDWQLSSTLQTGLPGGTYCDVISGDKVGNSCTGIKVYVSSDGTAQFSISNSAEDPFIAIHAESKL
The experiment in a line: colorimetric starch-iodine assay of amylase-mediated starch hydrolysis. The test is classed as biochemical. Conditions: read-out: Fraction Inhibited (starch-iodine assay).

Each structure is given as a SMILES string.

Method: The effectiveness of GMα (panel A) and GMβ (panel) to inhibit starch hydrolysis (1 mg/ml) mediated by porcine pancreatic α-amylase (1 μM) is shown as a function of the concentration of GMα and GMβ. The Fraction of Reaction Inhibited was calculated using U/ml values determined from the iodine-starch assay as described by (ref), with U/ml=(As62 control−As62 sample)/(As62 starch×20 min×0.1 ml reaction volume), a value that can be interpreted as mg of starch hydrolyzed per minute. The Fraction of “Unfolded” Starch was calculated in the absence of enzyme as A562 taken in the presence of GMα (panel C) and GMβ (panel D) divided by A562 taken in the absence of the GM. General solution conditions are 20 mM potassium phosphate, pH 7, 30° C.;
A standard curve was constructed using 100 μL of 6 concentrations (0-1.0 mg/ml) and 100 μL of soluble starch. A total of 100 μL of 1 mg/ml of soluble starch+/−varying concentrations of GMs were incubated for 20 minutes at 30° C.+/−5 μL enzyme, for a total concentration of 1 μM PPA/well, and the absorbance read at 520 nm.

With `C[C@H]1O[C@H](O[C@H]2[C@H](O)[C@@H](O)[C@@H](O[C@H]3[C@H](O)[C@@H](O)C(O)O[C@@H]3CO)O[C@@H]2CO)[C@H](O)[C@@H](O)[C@@H]1N[C@H]1C=C(CO)[C@@H](O)[C@H](O)[C@H]1O` (stereo partly shown) [Acarbose, acarbose], the inhibition at 400 µM was found to be 79%.
